Assay results reported in US20210223229A1, “IMMUNE FUNCTION INSPECTION METHOD, CANCER PATIENT CATEGORIZATION METHOD, CANCER TREATMENT EFFICACY PREDICTION METHOD, AGENT FOR INCREASING INTRACELLULAR CALCIUM ION CONCENTRATION, AGENT FOR INCREASING SELECTIVE FUNCTION OF EFFECTOR MEMORY (EM) AND EFFECTOR (EFF) IN TUMOR TISSUE, AND METHOD FOR …” (NATIONAL UNIVERSITY CORPORATION OKAYAMA UNIVERSITY, priority 2016, published 2021).
Entries after “also recorded” stand apart in the source; their conditions may differ.

What was measured:
[1] = tested on: OVA-expressing B16 melanoma cell strain MO5
Method: The four types of groups: an untreated group (C), and, 10 days after the tumor cell inoculation, sole use of aspirin, sole use of phenformin (Phen), combined use of aspirin and phenformin, each consisting of 5 mice, were prepared. Phenformin is a biguanide-based drug, like metformin. From Day 10 of the tumor cell inoculation, phenformin contained in a feed in an amount of 0.5% was given. Further, the feed was replaced by a normal feed every four days. Specifically, a phenformin-containing feed was given only on Day 10 to Day 14, and Day 18 to Day 22. A normal feed free of phenformin was given from Day 14 to Day 18, and Day 22 to Day 26. This administration method is based on the fact that there have been fatal cases by everyday administration of phenformin due to side effects.
In contrast, aspirin (600 μg/mL) was given by free water drinking, and the water drinking was continuously performed from Day 10.

[2] = tested on: glucose transporter (Glut1) in tumor-infiltrating CD8T cells; assay: Glucose transporter (Glut1) expression in tumor-infiltrating CD8T cells, MethA tumor; assay type: in vivo, BALB/c; details: metformin 5 mg/mL free-water-drinking from Day 7; Day 10 and Day 13; with and without PMA stimulation
Method: Tumor (MethA) 2×10^6 was intradermally injected to 8-week old BALB/c, and metformin (5 mg/mL) was continuously given by free-water-drinking from Day 7. Three and 6 days after the treatment (Day 10 and Day 13), the tumor-infiltrating T cells (TIL) were separated and stained with anti-CD8 antibody, and anti-glucose transporter (Glut1) antibody. Further, after stimulating culture in the presence of PMA/Ionomycin/Monencin for 6 hours, the cells were stained with anti-CD8 antibody and anti-glucose transporter (Glut1) antibody, followed by analysis using a flow cytometer.

human CD8T cells = assay: Calcium concentration in peripheral blood CD8T cells of cancer patients before and after metformin administration; assay type: in vivo; details: stage I, stage IIa and stage IV cancer patients; before vs after metformin
Method: In stage I, stage IIa, and stage IV cancer patients, changes in calcium concentration increase by PMA stimulation before and after metformin administration were measured. Human PBMC (human peripheral blood mononuclear cells) were collected before and after the metformin administration that was performed in accordance with the administration schedule shown in the figure, and subjected to stimulation with 100 ng/mL PMA and 5 ionomycin in the same manner as in Example 3, followed by measurement of calcium ion increase in human CD8T cells as a result of stimulation. Specifically, peripheral blood mononuclear cells (PBMC) were separated from peripheral blood by a gravity separation method, and 1×10^6 lymphocytes were incubated for 30 minutes at 37° C. in the presence of 1 μg/mL anti-human CD8 antibody and 1 μM Fluo4/FuraRed. The incubation was followed by washing with an AIM-V medium. After the washing, AIM-V was added and unstimulated (before stimulation) lymphocytes were collected by FACSCantoII for 20 minutes, thereby collecting baseline data. Thereafter, 100 ng/mL PMA and 2 μM ionomycin were added and stimulation was applied, followed by immediate collection by FACSCantoII, thereby obtaining data after stimulation. Consequently, waveforms according to the cytoplasmic calcium concentrations were detected.

[3] = tested on: Glut1-positive tumor-infiltrating CD8T cells; assay: Multifunctionality of CD8T cells expressing Glut1, MethA tumor; assay type: in vivo, BALB/c
Method: Tumor (MethA) 2×10^6 was intradermally injected to 8-week old BALB/c, and metformin (5 mg/mL) was continuously given by free-water-drinking from Day 7. Three and 6 days after the treatment (Day 10 and Day 13), the tumor-infiltrating T cells (TIL) were separated. After stimulating culture in the presence of PMA/Ionomycin/Monencin for 6 hours, the cells were stained with anti-CD8 antibody, anti-glucose transporter (Glut1) antibody, and intracellular cytokines (IL-2/TNFα/IFNγ), followed by analysis using a flow cytometer. […] The proportion is increased by metformin administration. These facts indicate that, by confirming the Glut1 expression level in the tumor-infiltrating CD8T cells using a flow cytometer, it is possible to assume the immune status without performing a multifunctionality test. Further, by performing immunotherapy such as metformin administration, and confirming that the Glut1 expression level was increased in the CD8T cells by the therapy, it is possible to determine that the treatment had immune effects.

[4] = tested on: tumor-infiltrating CD8T cells; assay: Memory phenotype of antigen-specific tumor-infiltrating CD8T cells and glucose (2-NBDG) uptake in each cell fraction; assay type: in vivo, C57BL/6 mice
Method: 2×10^5 MO-5 was intradermally inoculated to C57BL/6 mice; 7 days after the transplantation, free-water-drinking oral administration of 5 mg/mL metformin was started. Seven days after the administration (14 days after the transplantation), the tumor tissue was excised, and tumor-infiltrating lymphocytes were separated. After the separation, the lymphocytes were washed with 0.1% BSA/PBS, and staining was performed with antimouse CD8 antibody APC-Cy7, antimouse CD62L antibody BV421, antimouse CD44 antibody PerCP, antimouse KLRG1 antibody APC, and 400 μM 2-NBDG (2-[N-(7-nitrobenz-2-oxa-1,3-diazol-4-yl) amino]-2-deoxy-d-glucose) for 30 minutes at 4° C. After washing with 0.1% BSA/PBS, frequency and memory phenotype (CD44, CD62L, KLRG1) of antigen-specific tumor-infiltrating CD8T cells, and deoxyglucose (2-NBDG) uptake in each cell fraction were analyzed using a flow cytometer (FIG. 2).

mouse CD8T cells = assay: Detection of intracellular calcium ion in mouse tumor-infiltrating and lymph node lymphocytes after metformin administration; assay type: in vivo, C57BL/6 mice; details: 5 mg/mL metformin free-water-drinking for 7 days
Method: 2×10^5 MO-5 (OVA-expressing B16 melanoma cell strain) was intradermally inoculated to C57BL/6 mice; 7 days after the transplantation, free-water-drinking oral administration of 5 mg/mL metformin was started. Seven days after the administration (14 days after the transplantation), the lymph node (LN) and the tumor tissue (Tumor) were excised, and the tumor-infiltrating lymphocytes and lymphocytes of the lymph node were collected. After the cells were washed with FCS(−)RPMI, the cells were stained using antimouse CD3 antibody BV510, antimouse CD8 antibody APC-Cy7, 1 Fluo4, and 1 Fura Red for 30 minutes at 37° C. After the staining, the cells were washed with FCS(−)RPMI warmed at 37° C., followed by measurement of the background of intracellular calcium ions by a flow cytometer for 30 seconds. After the background measurement, the cells were immediately stimulated by 100 ng/ml PMA and 5 ionomycin, and the increase in calcium ions in the mouse CD8T cells by stimulation was measured (FIG. 1).

[5] = tested on: glucose transporter (Glut1) in CD8TIL; assay: Change in Glut1 expression over time in CD8TIL, MethA tumor; assay type: in vivo, BALB/c; details: after 6-hour in-vitro culture; metformin 5 mg/mL from Day 7, 3 days of treatment
Method: Syngeneic tumor MethA (2×10^6) was intradermally injected to 8-week old BALB/c, and administration of metformin (5 mg/mL) and N-acetylcysteine (NAC, 10 mg/mL) was started from Day 7. Three days after the treatment, the tumor-infiltrating T cells (TIL) were separated, and cultured for 0, 1, 3 and 6 hours at 37° C. Therefore, the cells were stained with CD3, CD8, and glucose transporter (Glut1) antibodies, followed by analysis using a flow cytometer (FIG. 8).

[6] = tested on: peripheral blood CD8T cells of cancer patients; assay: Multifunctionality of human CD8T cells under a low glucose condition (intracellular cytokine staining, FACS); assay type: cell-based; details: for number of CD8T cells producing three cytokines (IL-2, TNFα, IFNγ): 10 μM metformin 6 hours pre-culture, PMA/ionomycin stimulation
Method: FIG. 4: Analysis of multifunctionality of human CD8T-cells under a low glucose condition. Peripheral blood lymphocytes (PBMC) w/o 10 μM metformin were cultured for 6 hours. Subsequently, after washing, the cells were cultured for 12 hours at each glucose concentration. At the final 6 hours, the cells were cultured with PMA stimulation. After the culture, intracellular cytokine was stained with an antibody, followed by FACS analysis. It was confirmed that the multifunctionality of peripheral blood CD8T cells of cancer patients were recovered by being treated with metformin in advance, even in a low glucose environment, i.e., 1.0 mM.
Cryopreserved human PBMC obtained from cancer patients were thawed and cultured for 6 hours in the presence of FCS(−)RPMI 10 μM metformin. After the culture, the cells were separated and washed with FCS(−)Glc(−)RPMI. After the washing, the cells were subjected to stimulating culture for 6 hours by 50 ng/mL PMA and 2 ionomycin using RPMI containing 0.1, 1, 10 mM Glc in the presence of 1 monensin. The cells were separated and the cell-surface molecules were stained with antihuman CD8 antibody APC-Cy7, followed by a cell permeabilization treatment. The intracellular cytokines were stained with antihuman IL-2 antibody APC and antihuman TNFα antibody BV510, and […] IFNγ antibody FITC, followed by analysis using a flow cytometer (FIG. 4).

[7] = tested on: glucose transporter (Glut1) in CD8TIL; assay: Glut1 expression versus changes in glucose concentration in CD8TIL, MethA tumor; assay type: in vivo, BALB/c mice
Method: Syngeneic tumor (MethA) 2×10^6 was intradermally injected to 8-week old BALB/c mice, and administration of metformin (5 mg/mL) was started from Day 7. Three days after the treatment, the tumor-infiltrating T cells (TIL) were separated. After culture in the presence of a culture solution having a glucose concentration of 0, 0.1, 1.2, 6.1, 12.5, or 25 mM at 37° C. for 0, 1, 3, 6 hours, the cells were stained with CD3, CD8, and glucose transporter (Glut1) antibodies, followed by analysis using a flow cytometer (FIG. 9).

[8] = 5 mg/mL metformin free-water-drinking for 7 days, MO-5 tumor

SMILES | side effects of everyday administration ([1]; everyday administration of phenformin) | water drinking behaviour ([1]; mouse, in vivo) | tumor growth inhibitory effects ([1]; phenformin 0.5% in feed Day 10-14 and Day 18-22, aspirin 600 μg/mL free water drinking from Day 10) | Glut1-positive group in tumor-infiltrating CD8T cells [2] | calcium concentration by PMA stimulation in human CD8T cells (human CD8T cells) | proportion of Glut1-positive groups with multifunctionality ([3]; metformin 5 mg/mL free-water-drinking from Day 7, PMA/Ionomycin/Monencin 6 hours) | Glut1-positive and multifunctional cell groups per tumor unit ([3]; metformin administration group) | glycolysis system (2-NBDG uptake) of central memory ([4]; 5 mg/mL metformin) | glycolysis system (2-NBDG uptake) of effector (eff) and effector memory (EM) ([4]; 5 mg/mL metformin) | number and proportion of central memory [4, 8] | numbers and proportions of effector (eff) and effector memory (EM) [4, 8] | intracellular calcium concentration by PMA/ionomycin stimulation (mouse CD8T cells; CD8T cells of lymph node (LN), vs non-administration group) | intracellular calcium concentration by PMA/ionomycin stimulation (mouse CD8T cells; CD8T cells of tumor tissue (Tumor), MO-5 tumor) | Glut-1 expression in CD8TIL [5] | number of CD8T cells producing three cytokines (IL-2, TNFα, IFNγ) ([6]; glucose concentration 0.1 mM) | number of CD8T cells producing three cytokines (IL-2, TNFα, IFNγ) ([6]; glucose concentration 1 mM) | multifunctionality of peripheral blood CD8T cells of cancer patients ([6]; low glucose environment 1.0 mM, treated with 10 μM metformin in advance) | up-regulation of GLUT-1 in CD8TIL ([7]; 6-hour in-vitro culture, CD8TIL separated from metformin-administered mice) | Glut-1 expression in CD8TIL ([7]; glucose concentration 0 mM) | Glut-1 expression, proportion of CD8TIL ([7]; glucose concentration of 0.1 mM, metformin-administered mice) [%]
[H]/N=C(/N)N/C(=N/[H])NCCc1ccccc1 [phenformin] | fatal cases | the mice stopped drinking water | strong tumor growth inhibitory effects | – | – | – | – | – | – | – | – | – | – | – | – | – | – | – | – | –
CN(C)C(=N)N=C(N)N [metformin] | – | – | – | conspicuous increase; also recorded: increased | increase | increased | increased | deactivates the glycolysis system | activates the glycolysis system | reduces | increased | the degree of increase was greater | greatly increased | very high level | no difference | significantly increased | recovered | significant up-regulation | does not occur | 14.3
